“And” between values parts separate entries of the source, which are not always exact repeats. Equal values may be shown once. Toxic doses and inconclusive results are not listed.
System: P388 leukemia ip, CD2F1 mice, survival T/C
Assay: NCI In Vivo Anticancer Drug Screen. Data for tumor model P388 Leukemia (intraperitoneal) in CD2F1 (CDF1) mice
Details: endpoint: median survival time, higher = longer survival
Procedure: The antitumor activity of compounds was measured in mice bearing transplantable tumors. Survival or tumor size were measured and the results are expressed as the measurement made in the treated group (T) divided by the measurement made in the vehicle treated control group (C). The tumor model used in this assay is P388 Leukemia (intraperitoneal) in CD2F1 (CDF1) mice

[1] = dose: 60.0 mg/kg/injection, schedule: Q01DX005 (ip), vehicle: Klucel (hydroxypropylcellulose) (HPC)
[2] = dose: 120.0 mg/kg/injection, schedule: Q01DX005 (ip), vehicle: Klucel (hydroxypropylcellulose) (HPC)
[3] = dose: 240.0 mg/kg/injection, schedule: Q01DX005 (ip), vehicle: Klucel (hydroxypropylcellulose) (HPC)
[4] = dose: 50.0 mg/kg/injection, schedule: Q01DX009 (ip), vehicle: saline with Tween-80
[5] = dose: 100.0 mg/kg/injection, schedule: Q01DX009 (ip), vehicle: saline with Tween-80
[6] = dose: 200.0 mg/kg/injection, schedule: Q01DX009 (ip), vehicle: saline with Tween-80
[7] = dose: 25.0 mg/kg/injection, schedule: Q01DX009 (ip), vehicle: saline with Tween-80
[8] = dose: 50.0 mg/kg/injection, schedule: Q01DX009 (ip), vehicle: Klucel (hydroxypropylcellulose) (HPC)
[9] = dose: 100.0 mg/kg/injection, schedule: Q01DX009 (ip), vehicle: Klucel (hydroxypropylcellulose) (HPC)
[10] = dose: 50.0 mg/kg/injection, schedule: Q01DX005 (ip), vehicle: saline with Tween-80
[11] = dose: 100.0 mg/kg/injection, schedule: Q01DX005 (ip), vehicle: saline with Tween-80
[12] = dose: 200.0 mg/kg/injection, schedule: Q01DX005 (ip), vehicle: saline with Tween-80

Compound: [N-]=[N+]=NCC1OC(n2cnc3c(=O)[nH]c(N)nc32)C(O)C1O (stereo not drawn)
- T/C [1]: 107 % of control
- T/C [2]: 107 % of control
- T/C [3]: 106 % of control

Compound: O=C1c2cccnc2C(=O)c2c(O)ccc(O)c21
- T/C [4]: 95 % of control
- T/C [5]: 95 % of control
- T/C [6]: 99 % of control
- T/C (dose: 400.0 mg/kg/injection, schedule: Q01DX009 (ip), vehicle: saline with Tween-80): 100 % of control

Compound: Cc1onc(-c2c(Cl)cccc2Cl)c1C(=O)Nc1ccc(Cl)c(Cl)c1Cl
- T/C [1]: 96 % of control
- T/C [2]: 93 % of control
- T/C [3]: 92 % of control

Compound: C=C(C)C(=NC(C)(C)C)Nc1ccccc1Cl
- T/C [7]: 101 % of control and 90 % of control
- T/C [4]: 100 % of control and 119 % of control and 93 % of control
- T/C [5]: 111 % of control and 115 % of control and 90 % of control
- T/C [6]: 115 % of control and 98 % of control

Compound: CC(=O)OC1N(C(C)=O)C(SC23CC4CC(CC(C4)C2)C3)C(C)=CC1(C)OC(C)=O (stereo not drawn)
- T/C [8]: 111 % of control
- T/C [9]: 110 % of control
- T/C (dose: 200.0 mg/kg/injection, schedule: Q01DX009 (ip), vehicle: Klucel (hydroxypropylcellulose) (HPC)): 105 % of control

Compound: CC(NCc1ccccc1)[Si](C)(C)C (stereo not drawn)
- T/C [10]: 102 % of control
- T/C [11]: 105 % of control

Compound: Oc1cc(CN2CCCC2)c(O)cc1CN1CCCC1
- T/C [7]: 103 % of control and 111 % of control
- T/C [4]: 103 % of control and 111 % of control
- T/C [5]: 110 % of control and 111 % of control

Compound: CN=C(N)N/N=C(C)/C(C)=C/c1ccccc1
- T/C (dose: 25.0 mg/kg/injection, schedule: Q04DX002 (ip), vehicle: saline with Tween-80): 104 % of control

Compound: CC(=O)Nc1ccc(S(=O)(=O)CC#N)cc1
- T/C (dose: 50.0 mg/kg/injection, schedule: Q01DX009 (ip), vehicle: suspension in saline): 87 % of control
- T/C (dose: 100.0 mg/kg/injection, schedule: Q01DX009 (ip), vehicle: suspension in saline): 93 % of control

Compound: CC1CCC(SC2CC(=O)CCC2=O)CC1 (stereo not drawn)
- T/C [10]: 104 % of control and 115 % of control
- T/C [11]: 106 % of control and 115 % of control
- T/C [12]: 122 % of control

Compound: CC1CC(=O)NC(=O)N1 (stereo not drawn)
- T/C [4]: 96 % of control
- T/C [5]: 102 % of control
- T/C (dose: 100.0 mg/kg/injection, schedule: Q04DX003 (ip), vehicle: saline with Tween-80): 97 % of control
- T/C [6]: 99 % of control
- T/C (dose: 200.0 mg/kg/injection, schedule: Q04DX003 (ip), vehicle: saline with Tween-80): 94 % of control
- T/C (dose: 400.0 mg/kg/injection, schedule: Q04DX003 (ip), vehicle: saline with Tween-80): 103 % of control

Compound: O=C1OC(COCc2ccccc2)C/C1=C\c1ccc2c(c1)OCO2 (stereo not drawn)
- T/C (dose: 100.0 mg/kg/injection, schedule: Q04DX002 (ip), vehicle: saline with Tween-80): 95 % of control
- T/C (dose: 200.0 mg/kg/injection, schedule: Q04DX002 (ip), vehicle: saline with Tween-80): 86 % of control
- T/C (dose: 400.0 mg/kg/injection, schedule: Q04DX002 (ip), vehicle: saline with Tween-80): 86 % of control

Compound: O=c1c(N=Nc2nc3ccccc3s2)c(O)n(-c2ccccc2)c(=S)n1-c1ccccc1
- T/C (dose: 60.0 mg/kg/injection, schedule: Q01DX005 (ip), vehicle: saline): 109 % of control
- T/C (dose: 120.0 mg/kg/injection, schedule: Q01DX005 (ip), vehicle: saline): 100 % of control
- T/C (dose: 240.0 mg/kg/injection, schedule: Q01DX005 (ip), vehicle: saline): 106 % of control

Compound: [Cu+2].[NH-]CC(=O)NC(Cc1ccccc1)C(=O)O.[NH-]CC(=O)NC(Cc1ccccc1)C(=O)O (stereo not drawn)
- T/C (dose: 12.5 mg/kg/injection, schedule: Q04DX003 (ip), vehicle: saline): 93 % of control
- T/C (dose: 25.0 mg/kg/injection, schedule: Q04DX003 (ip), vehicle: saline): 90 % of control
- T/C (dose: 50.0 mg/kg/injection, schedule: Q04DX003 (ip), vehicle: saline): 100 % of control

Compound: CC(=O)NCCNC(Cc1ccccc1)C(=O)O (stereo not drawn)
- T/C (dose: 25.0 mg/kg/injection, schedule: Q01DX001 (ip), vehicle: Klucel (hydroxypropylcellulose) (HPC)): 108 % of control
- T/C (dose: 50.0 mg/kg/injection, schedule: Q01DX001 (ip), vehicle: Klucel (hydroxypropylcellulose) (HPC)): 101 % of control
- T/C (dose: 100.0 mg/kg/injection, schedule: Q01DX001 (ip), vehicle: Klucel (hydroxypropylcellulose) (HPC)): 100 % of control and 101 % of control

Compound: CCN(CC)Cc1c(C)[nH]c2ccc3c(c2c1=O)Oc1ccccc1O3
- T/C (dose: 100.0 mg/kg/injection, schedule: Q04DX002 (ip), vehicle: Klucel (hydroxypropylcellulose) (HPC)): 100 % of control
- T/C (dose: 200.0 mg/kg/injection, schedule: Q04DX002 (ip), vehicle: Klucel (hydroxypropylcellulose) (HPC)): 100 % of control
- T/C (dose: 400.0 mg/kg/injection, schedule: Q04DX002 (ip), vehicle: Klucel (hydroxypropylcellulose) (HPC)): 100 % of control

Compound: O=C1C(=O)C2CC3(CC1N2Cc1ccccc1)OCCO3
- T/C (dose: 8.75 mg/kg/injection, schedule: Q01DX005 (ip), vehicle: Klucel (hydroxypropylcellulose) (HPC)): 109 % of control
- T/C (dose: 17.5 mg/kg/injection, schedule: Q01DX005 (ip), vehicle: Klucel (hydroxypropylcellulose) (HPC)): 104 % of control
- T/C (dose: 35.0 mg/kg/injection, schedule: Q01DX005 (ip), vehicle: Klucel (hydroxypropylcellulose) (HPC)): 110 % of control

Compound: CC(=O)C1CCC=C2C1CC1CC2C1(C)C (stereo not drawn)
- T/C (dose: 25.0 mg/kg/injection, schedule: Q01DX009 (ip), vehicle: Klucel (hydroxypropylcellulose) (HPC)): 100 % of control
- T/C [8]: 100 % of control
- T/C [9]: 104 % of control

Compound: COc1cc(NCC(C)(O)CN(CC(C)C)C(C)C)c2ncccc2c1 (stereo not drawn)
- T/C (dose: 12.5 mg/kg/injection, schedule: Q01DX005 (ip), vehicle: saline): 97 % of control
- T/C (dose: 25.0 mg/kg/injection, schedule: Q01DX005 (ip), vehicle: saline): 103 % of control
- T/C (dose: 50.0 mg/kg/injection, schedule: Q01DX005 (ip), vehicle: saline): 106 % of control and 109 % of control

Compound: CCCC(NC(=O)C(F)(F)F)C(=O)O (stereo not drawn)
- T/C [4]: 91 % of control
- T/C [5]: 93 % of control
- T/C [6]: 106 % of control

Compound: COC1=NC2=NC(OC)=NC3=C(Br)C=C(Br)C(=N1)N23
- T/C [1]: 91 % of control
- T/C [2]: 92 % of control
- T/C [3]: 87 % of control

Compound: NC1=NC2C(Cl)=CC=CC2S1 (stereo not drawn)
- T/C [8]: 109 % of control
- T/C [9]: 107 % of control

Compound: NC(CSC(c1ccccc1)(c1ccccc1)c1ccc2ccccc2c1)C(=O)O (stereo not drawn)
- T/C (dose: 3.13 mg/kg/injection, schedule: Q01DX009 (ip), vehicle: saline with Tween-80): 186 % of control
- T/C (dose: 3.13 mg/kg/injection, schedule: Q01DX009 (ip), vehicle: water): 169 % of control
- T/C (dose: 6.25 mg/kg/injection, schedule: Q01DX009 (ip), vehicle: saline with Tween-80): 198 % of control
- T/C (dose: 6.25 mg/kg/injection, schedule: Q01DX009 (ip), vehicle: water): 189 % of control
- T/C (dose: 12.5 mg/kg/injection, schedule: Q01DX009 (ip), vehicle: saline with Tween-80): 261 % of control
- T/C (dose: 12.5 mg/kg/injection, schedule: Q01DX009 (ip), vehicle: water): 216 % of control
- T/C [7]: 90 % of control
- T/C (dose: 25.0 mg/kg/injection, schedule: Q01DX009 (ip), vehicle: water): 99 % of control

Compound: O=C1OCC/C1=C\c1ccco1
- T/C (dose: 50.0 mg/kg/injection, schedule: Q01DX005 (ip), vehicle: acetone): 119 % of control
- T/C (dose: 100.0 mg/kg/injection, schedule: Q01DX005 (ip), vehicle: acetone): 103 % of control

Compound: C[CH2][Sn]([CH2]C)([S]c1nc(O)cc(=O)[nH]1)[S]c1nc(O)cc(=O)[nH]1
- T/C (dose: 1.56 mg/kg/injection, schedule: Q01DX005 (ip), vehicle: Klucel (hydroxypropylcellulose) (HPC)): 107 % of control
- T/C (dose: 3.12 mg/kg/injection, schedule: Q01DX005 (ip), vehicle: Klucel (hydroxypropylcellulose) (HPC)): 113 % of control and 119 % of control
- T/C (dose: 6.25 mg/kg/injection, schedule: Q01DX005 (ip), vehicle: Klucel (hydroxypropylcellulose) (HPC)): 118 % of control

Compound: CSC(=O)Nc1ccc(C)c(NC(=O)SC)c1
- T/C [10]: 94 % of control
- T/C [11]: 100 % of control
- T/C [12]: 100 % of control

Compound: OCCN(CCO)c1cc2c3ccccc3ccc2c2ccccc12
- T/C (dose: 50.0 mg/kg/injection, schedule: Q01DX005 (ip), vehicle: Klucel (hydroxypropylcellulose) (HPC)): 87 % of control
- T/C (dose: 100.0 mg/kg/injection, schedule: Q01DX005 (ip), vehicle: Klucel (hydroxypropylcellulose) (HPC)): 103 % of control
- T/C (dose: 200.0 mg/kg/injection, schedule: Q01DX005 (ip), vehicle: Klucel (hydroxypropylcellulose) (HPC)): 98 % of control

Compound: CC(/C=N\Nc1ccc(C(=O)O)cc1)=N/N(C)C
- T/C (dose: 100.0 mg/kg/injection, schedule: Q04DX003 (ip), vehicle: saline): 101 % of control
- T/C (dose: 200.0 mg/kg/injection, schedule: Q04DX003 (ip), vehicle: saline): 98 % of control
- T/C (dose: 400.0 mg/kg/injection, schedule: Q04DX003 (ip), vehicle: saline): 101 % of control

Reference: PubChem BioAssay AID330 (DTP/NCI, 2004)
